{"source": "patent US20110172184A1", "about": "“ANTITUMOR AGENT CONTAINING 4 - [[3,5 - BIS ([…]) BENZOYL] AMINO] BENZOIC ACID” (TAIHO PHARMACEUTICAL CO., LTD., priority 2008, published 2011)", "tested_on": "human liver cancer cell line JHH-7", "experiment": "Antitumor effect (tumor weight T/C) on human liver cancer cell line JHH-7 transplanted into the left lateral liver lobe of nude mice", "format": "in vivo, mouse", "conditions": "tumor weight on 15th day", "description": "Sorafenib was weighed at every time of use, and a liquid for administration was prepared. […] BALE/cA Jcl-nu male nude mice (Clea Japan, Inc.) were used as the efficacy test animals.\nOn the 15th day after the initiation of administration, the mice were killed by bleeding under ether anesthesia, subsequently tumors formed in the left lateral liver lobe were extracted, and the weight of the tumors was measured. The tumor growth rate (%) was calculated by the formula shown below, and the T/C value of each of the drug administered groups was calculated, while the average tumor weight of the non-drug administered control group was taken as 100%. This T/C value was used as an index of the antitumor effect. The statistical significance of the single drug administered groups was determined by Welch's two-tailed test, and the statistical significance of the effect synergizing action obtained by combined use was determined by the intersection union test based on Welch's two-tailed test.\nTumor growth rate (%)=T/C×100\nT: Average tumor weight of a group with administration of the test compound\nC: Average tumor weight of a group without administration of the test compound\n(§1) On the 11th day after the transplantation, the animals were grouped into seven animals per group, and the treatment experiment was initiated. Doxorubicin was administered such that 10 mg/kg, which is the maximum tolerated dose for a mouse, was administered one time intravenously. Sorafenib was orally administered once a day for 14 consecutive days.\nas §1, with “Gemcitabine” for “Doxorubicin”, “120” for “10”, “intraperitoneally four times in total at an interval of 3 days.” for “one time intravenously.”"}
{"smiles": "C[Si](C)(C)c1cc(C(=O)Nc2ccc(C(=O)O)cc2)cc([Si](C)(C)C)c1", "note": "[compound 1, 4-[[3,5-bis(trimethylsilyl)benzoyl]amino]benzoic acid]", "values": [{"measurement": "T/C value (tumor growth rate)", "setting": "Pharmacological Test Example 1, compound 1 single drug, 2 mg/kg orally once a day for 14 days", "result": 51, "unit": "%"}]}
{"smiles": "COc1cccc2c1C(=O)c1c(O)c3c(c(O)c1C2=O)C[C@@](O)(C(=O)CO)C[C@@H]3O[C@H]1C[C@H](N)[C@H](O)[C@H](C)O1", "note": "[doxorubicin]", "values": [{"measurement": "T/C value (tumor growth rate)", "setting": "Comparative Example 1, doxorubicin single drug, 10 mg/kg one time intravenously", "result": 70, "unit": "%"}]}
{"smiles": "Nc1ccn([C@@H]2O[C@H](CO)[C@@H](O)C2(F)F)c(=O)n1", "note": "[gemcitabine]", "values": [{"measurement": "T/C value (tumor growth rate)", "setting": "Comparative Example 2, gemcitabine single drug, 120 mg/kg intraperitoneally four times at an interval of 3 days", "result": 47, "unit": "%"}]}
{"smiles": "CNC(=O)c1cc(Oc2ccc(NC(=O)Nc3ccc(Cl)c(C(F)(F)F)c3)cc2)ccn1", "note": "[sorafenib, N-(4-chloro-3-(trifluoromethyl)phenyl)-N′-(4-(2-(N-methylcarbamoyl)-4-pyridyloxy)phenyl)urea]", "values": [{"measurement": "T/C value (tumor growth rate)", "setting": "Comparative Example 1, sorafenib single drug, orally once a day for 14 days", "result": 62, "unit": "%"}, {"measurement": "T/C value (tumor growth rate)", "setting": "Comparative Example 2, sorafenib single drug, orally once a day for 14 days", "result": 60, "unit": "%"}, {"measurement": "T/C value (tumor growth rate)", "setting": "Pharmacological Test Example 1, sorafenib single drug, 10 mg/kg orally once a day for 14 days", "result": 65, "unit": "%"}]}
